Tests used:
α2β1δ = target: T1, α2β1δ (Rattus norvegicus; Mus musculus; Homo sapiens, UniProt P15431+P26048); assay: two-electrode voltage clamp, Xenopus oocytes; format: cell-based; conditions: read-out: Taurine / EC50
T1 construct: gene Gabra2; ternary GABA-A receptor, mouse alpha2 + rat beta1 + human delta; Xenopus oocytes, cRNA ratio 10:1:10; with Gamma-aminobutyric acid receptor subunit delta

α2β1γ2 (δ74–79) = target: T2, α2β1γ2 (δ74–79) (Mus musculus; Rattus norvegicus, UniProt P15431+P26048); assay: two-electrode voltage clamp, Xenopus oocytes; format: cell-based; conditions: read-out: Taurine / EC50
T2 construct: gene Gabra2; mouse alpha2 + rat beta1 + mouse gamma2L with IDIFFA (74-79) replaced by delta motif MTVFLH; printed primers also encode T81S and Y83R, text names 74-79 only; Xenopus oocytes; with Gamma-aminobutyric acid receptor subunit gamma-2
T2 sequence (P15431 26-474, one chain of several): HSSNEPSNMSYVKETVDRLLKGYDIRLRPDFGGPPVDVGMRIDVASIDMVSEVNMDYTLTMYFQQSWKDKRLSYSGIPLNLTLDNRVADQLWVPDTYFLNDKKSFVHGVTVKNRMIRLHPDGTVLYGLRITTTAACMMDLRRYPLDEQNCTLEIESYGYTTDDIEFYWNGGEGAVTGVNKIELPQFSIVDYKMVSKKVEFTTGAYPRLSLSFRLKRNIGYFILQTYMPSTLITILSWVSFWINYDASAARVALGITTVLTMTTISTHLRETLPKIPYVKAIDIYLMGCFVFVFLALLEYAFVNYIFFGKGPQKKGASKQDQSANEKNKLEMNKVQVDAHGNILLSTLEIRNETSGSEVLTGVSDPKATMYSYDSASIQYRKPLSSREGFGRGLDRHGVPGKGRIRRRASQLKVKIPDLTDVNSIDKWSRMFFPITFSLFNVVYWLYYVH
Excerpt: two-electrode voltage clamp, Xenopus oocytes on α2β1γ2 (δ74–79)

α2β3δ = target: T3, α2β3δ (Mus musculus; Homo sapiens, UniProt P26048+P28472); assay: two-electrode voltage clamp, Xenopus oocytes; format: cell-based; conditions: read-out: Taurine / EC50
T3 construct: gene Gabra2; ternary GABA-A receptor, mouse alpha2 + human beta3 + human delta; Xenopus oocytes, cRNA ratio 10:1:10; with Gamma-aminobutyric acid receptor subunit delta
T3 sequence (P26048 29-451): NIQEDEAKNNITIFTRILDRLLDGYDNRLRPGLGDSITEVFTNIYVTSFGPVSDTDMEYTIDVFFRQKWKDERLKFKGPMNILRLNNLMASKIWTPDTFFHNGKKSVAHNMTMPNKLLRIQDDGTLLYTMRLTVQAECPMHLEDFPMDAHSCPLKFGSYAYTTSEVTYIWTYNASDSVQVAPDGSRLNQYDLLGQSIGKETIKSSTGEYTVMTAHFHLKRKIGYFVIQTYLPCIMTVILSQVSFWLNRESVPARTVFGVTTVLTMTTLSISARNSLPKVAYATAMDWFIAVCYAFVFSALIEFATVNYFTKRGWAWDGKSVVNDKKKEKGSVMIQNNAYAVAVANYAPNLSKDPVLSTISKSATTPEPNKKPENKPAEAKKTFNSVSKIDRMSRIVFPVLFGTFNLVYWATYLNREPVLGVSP
T3 sequence (P28472 26-473): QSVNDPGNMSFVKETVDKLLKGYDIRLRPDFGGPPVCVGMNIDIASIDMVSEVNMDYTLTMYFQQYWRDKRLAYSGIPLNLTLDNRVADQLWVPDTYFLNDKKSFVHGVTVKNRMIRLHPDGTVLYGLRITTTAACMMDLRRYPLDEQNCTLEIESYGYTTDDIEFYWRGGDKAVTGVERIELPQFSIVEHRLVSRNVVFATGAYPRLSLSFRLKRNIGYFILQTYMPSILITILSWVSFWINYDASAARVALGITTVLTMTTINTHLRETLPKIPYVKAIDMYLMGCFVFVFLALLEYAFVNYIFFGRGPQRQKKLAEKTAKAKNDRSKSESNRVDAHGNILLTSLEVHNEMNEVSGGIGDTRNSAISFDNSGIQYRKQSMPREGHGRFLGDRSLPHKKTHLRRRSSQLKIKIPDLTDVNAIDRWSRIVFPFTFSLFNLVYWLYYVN
T3 sequence (O14764 25-452 partner): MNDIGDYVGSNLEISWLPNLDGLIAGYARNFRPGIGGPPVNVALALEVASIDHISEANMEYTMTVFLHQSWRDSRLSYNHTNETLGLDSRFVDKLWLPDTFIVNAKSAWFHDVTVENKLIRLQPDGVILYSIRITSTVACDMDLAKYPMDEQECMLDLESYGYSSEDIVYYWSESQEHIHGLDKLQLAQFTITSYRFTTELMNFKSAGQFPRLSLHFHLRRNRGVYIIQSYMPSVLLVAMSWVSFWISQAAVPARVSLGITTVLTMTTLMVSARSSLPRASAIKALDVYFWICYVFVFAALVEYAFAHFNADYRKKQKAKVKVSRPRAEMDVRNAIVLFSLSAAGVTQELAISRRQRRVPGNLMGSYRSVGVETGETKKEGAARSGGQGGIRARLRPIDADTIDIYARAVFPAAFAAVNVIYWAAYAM

α2β3 = target: T4, α2β3 (Mus musculus; Homo sapiens, UniProt P26048+P28472); assay: two-electrode voltage clamp, Xenopus oocytes; format: cell-based; conditions: read-out: Taurine / EC50
T4 construct: gene Gabra2; binary GABA-A receptor, mouse alpha2 + human beta3; Xenopus oocytes
T4 sequence (P26048 29-451): T3 sequence (P26048 29-451)
T4 sequence (P28472 26-473): T3 sequence (P28472 26-473)

α2β1γ2 = target: T5, α2β1γ2 (Rattus norvegicus; Mus musculus, UniProt P15431+P26048); assay: two-electrode voltage clamp, Xenopus oocytes; format: cell-based; conditions: read-out: Taurine / EC50
T5 construct: gene Gabra2; ternary GABA-A receptor, mouse alpha2 + rat beta1 + mouse gamma2L; Xenopus oocytes, cRNA ratio 10:1:10; with Gamma-aminobutyric acid receptor subunit gamma-2
T5 sequence (P26048 29-451 F77I): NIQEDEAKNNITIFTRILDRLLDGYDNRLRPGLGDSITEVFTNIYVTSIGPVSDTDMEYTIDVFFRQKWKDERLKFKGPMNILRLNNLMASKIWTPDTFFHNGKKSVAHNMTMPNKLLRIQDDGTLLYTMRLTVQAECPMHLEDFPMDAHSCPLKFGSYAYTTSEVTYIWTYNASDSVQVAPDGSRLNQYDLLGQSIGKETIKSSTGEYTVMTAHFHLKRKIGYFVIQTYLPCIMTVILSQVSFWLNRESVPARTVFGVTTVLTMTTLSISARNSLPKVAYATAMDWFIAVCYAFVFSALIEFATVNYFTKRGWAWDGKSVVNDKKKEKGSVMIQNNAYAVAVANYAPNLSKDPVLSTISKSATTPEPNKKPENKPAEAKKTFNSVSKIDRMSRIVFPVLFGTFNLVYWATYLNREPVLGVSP
T5 sequence (P15431 26-474): as the sequence (P15431 26-474, one chain of several) above
T5 sequence (P22723 39-474 partner): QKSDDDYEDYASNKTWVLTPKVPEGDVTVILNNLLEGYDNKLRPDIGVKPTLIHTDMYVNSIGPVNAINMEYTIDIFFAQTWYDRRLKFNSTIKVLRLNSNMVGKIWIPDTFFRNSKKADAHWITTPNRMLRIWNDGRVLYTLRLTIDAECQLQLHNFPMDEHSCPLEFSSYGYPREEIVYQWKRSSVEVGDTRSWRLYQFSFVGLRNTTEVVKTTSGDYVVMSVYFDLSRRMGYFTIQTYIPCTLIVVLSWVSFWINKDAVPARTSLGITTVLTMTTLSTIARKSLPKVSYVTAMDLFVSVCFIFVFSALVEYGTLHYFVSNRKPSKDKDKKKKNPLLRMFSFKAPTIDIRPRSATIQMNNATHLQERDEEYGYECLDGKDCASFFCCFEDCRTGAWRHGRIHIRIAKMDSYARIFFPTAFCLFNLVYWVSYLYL

α2β1 = target: T6, α2β1 (Mus musculus; Rattus norvegicus, UniProt P15431+P26048); assay: two-electrode voltage clamp, Xenopus oocytes; format: cell-based; conditions: read-out: Taurine / EC50
T6 construct: gene Gabra2; binary GABA-A receptor, mouse alpha2 + rat beta1; Xenopus oocytes
T6 sequence (P15431 26-474, one chain of several): as the sequence (P15431 26-474, one chain of several) above
Excerpt: two-electrode voltage clamp, Xenopus oocytes on α2β1

α2β3γ2 = target: T7, α2β3γ2 (Mus musculus; Homo sapiens, UniProt P22723+P26048+P28472); assay: two-electrode voltage clamp, Xenopus oocytes; format: cell-based; conditions: read-out: Taurine / EC50
T7 construct: gene Gabra2; ternary GABA-A receptor, mouse alpha2 + human beta3 + mouse gamma2L; Xenopus oocytes, cRNA ratio 10:1:10; agonist site alpha/beta, zolpidem site alpha/gamma
T7 sequence (P22723 39-474, one chain of several): as the sequence (P22723 39-474 partner) above

α2β3γ2 (δ74–79) = target: T8, α2β3γ2 (δ74–79) (Mus musculus; Homo sapiens, UniProt P22723+P26048+P28472, P22723:A117H/P22723:D113T/P22723:F116L/P22723:I112M/P22723:I114V/P22723:T119S/P22723:Y121R); assay: cell-based; conditions: read-out: % of control GABA current at 1 μM
T8 construct: gene Gabra2
T8 sequence (P26048 29-451): T3 sequence (P26048 29-451)
T8 sequence (P28472 26-473): T3 sequence (P28472 26-473)
T8 sequence (P22723 39-474 I112M/D113T/I114V/F116L/A117H/T119S/Y121R): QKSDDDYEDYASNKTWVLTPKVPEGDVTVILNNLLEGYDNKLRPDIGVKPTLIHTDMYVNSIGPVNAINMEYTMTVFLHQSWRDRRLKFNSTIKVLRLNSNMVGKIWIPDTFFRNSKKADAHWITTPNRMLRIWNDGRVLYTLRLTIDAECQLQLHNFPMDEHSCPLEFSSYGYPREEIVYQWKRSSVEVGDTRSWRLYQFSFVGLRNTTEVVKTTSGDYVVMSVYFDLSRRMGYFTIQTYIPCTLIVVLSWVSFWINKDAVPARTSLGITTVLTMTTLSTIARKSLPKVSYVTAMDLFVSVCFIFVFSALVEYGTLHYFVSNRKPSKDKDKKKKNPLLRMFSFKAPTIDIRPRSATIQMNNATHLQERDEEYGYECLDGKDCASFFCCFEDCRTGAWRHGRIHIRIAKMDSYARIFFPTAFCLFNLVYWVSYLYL

T1 sequence (P15431 26-474, one chain of several): as the sequence (P15431 26-474, one chain of several) above

Row | SMILES | EC50 (α2β1δ) [mM] | EC50 (α2β1γ2 (δ74–79)) [mM] | EC50 (α2β3δ) [mM] | EC50 (α2β3) [mM] | EC50 (α2β1γ2) [mM] | EC50 (α2β1) [mM] | EC50 (α2β3γ2) [mM] | remaining activity at 1 µM (α2β3γ2 (δ74–79)) [%]
1 | NCCS(=O)(=O)O [taurine, 2-aminoethane sulfonic acid] | 67.8 ± 15.9 | 40.5 ± 6.9 | 35.4 ± 2 | 24.5 ± 11.2 | 76.1 ± 3.9 | 81.8 ± 24.9 | 51.2 ± 19.8 | 
2 | Cc1ccc(-c2nc3ccc(C)cn3c2CC(=O)N(C)C)cc1 [zolpidem] |  |  |  |  |  |  |  | 97 ± 7

From PMC3640040, “Partial Agonism of Taurine at Gamma-Containing Native and Recombinant GABAA Receptors” (PLoS ONE, 2013)
